In paper PMC3834177 (Cancer Chemotherapy and Pharmacology, 2013):
Several values for one entry are separate records, joined by “and”; a condition that tells them apart may be missing. Equal values may be shown once. Entries after “also recorded” stand apart in the source; their conditions may differ.

How the values were obtained:
[1] = Safety and tolerability, rifampicin study
[2] = Midostaurin PK when administered with ketoconazole; conditions: for AUC(0-inf): AUC0–inf; for AUC(0-inf) / Cmax: adjusted geometric mean; for Cmax: C max; for half-life: t 1/2, adjusted geometric mean
Procedure: According to the US Food and Drug Administration, ketoconazole 400 mg once daily is the recommended dose to evaluate DDIs involving CYP3A4 inhibition. [drawing 1]
(§1) Adverse events (AEs) were recorded during the study and up to 1 month (28 days) after the end of study. Volunteers remained at the clinic until AEs were common toxicity criteria (CTC) grade ≤1.
A point estimate and the corresponding 90 % CI for the treatment effect were calculated for the test treatment compared with the reference. These were anti-logged to obtain the point estimate and the 90 % CI for the geometric mean ratio (GMR) on the untransformed scale. […] All ANOVAs were performed using SAS software (SAS Institute Inc., Cary, NC, USA).
(§2) The concentration of ketoconazole in plasma was assessed using a validated LC–MS/MS assay with an LLOQ of 50.0 ng/mL (WuXi Pharmatech Co, Ltd, China). The concentration of rifampicin in plasma was measured using a validated LC–MS/MS assay with an LLOQ of 5.0 ng/mL (SGS, Cephac Europe, SAS). Plasma concentrations of midazolam and its metabolite 1′-hydroxymidazolam, which is generated by CYP3A4 and CYP3A5 in humans, were measured using a validated LC–MS/MS assay with an LLOQ of ≈0.100 ng/mL (SGS, Cephac Europe, SAS). The plasma concentration of 4β-hydroxycholesterol was measured using a validated LC–MS/MS assay with an LLOQ of 3.0 ng/mL (SGS, Cephac Europe, SAS). The concentrations of 6β-hydroxycortisol and cortisol in urine were determined using validated LC–MS/MS assays with an LLOQ of 10.0 ng/mL for 6β-hydroxycortisol and 1.0 ng/mL for cortisol. The ratio of 6β-hydroxycortisol to cortisol was subsequently calculated (SGS, Cephac Europe, SAS). See Supplementary Table 2 for detailed bioanalytical methods for all 3 studies.

[3] = tested on: human serum protein α1-acid glycoprotein (AAG); parameters: method as in PMID 11230495; conditions: cited from earlier work
[4] = Safety and tolerability, ketoconazole study; format: in vivo, human
Procedure: as §1

[5] = cited from earlier work
[6] = tested on: patients with ASM; conditions: cited from earlier work
[7] = Midostaurin PK when administered with rifampicin; conditions: for AUC(0-inf) / AUC(0-t) / Cmax / half-life: human, oral; for AUC(0-inf): AUC0–inf; for AUC(0-inf) / AUC(0-t) / Cmax: adjusted geometric mean; for AUC(0-t): AUC0–last; for Cmax: C max; for half-life: t 1/2, adjusted geometric mean
Procedure: These endogenous molecules served as exploratory biomarkers for CYP3A4 activity in vivo [21, 22].
A point estimate and the corresponding 90 % CI for the treatment effect (test vs reference) were calculated. These were anti-logged to obtain the GMR and respective 90 % CI. […] The median difference was estimated with the Hodges–Lehmann estimator and its respective exact two-sided 90 % CI. All formal comparative statistical analyses were performed using SAS software.
as §2

[8] = tested on: CYP3A4; assay: CYP3A4 activity in vivo in midazolam study (probe and endogenous biomarkers); parameters: species or system human
Procedure: Both inhibition and induction of midazolam clearance were investigated.
Similarly, blood and urine samples were taken on days 1, 3, 6, 7, 8, and 9 to measure the levels of 4β-hydroxycholesterol in plasma and the 6β-hydroxycortisol/cortisol ratio in urine, markers of CYP3A4 activity.
as §2

[9] = tested on: CYP3A4; conditions: patients with ASM, 1–2 months of daily midostaurin dosing; cited from earlier work
[10] = rifampicin study: Mido 50 mg + Rifa 600 mg (n = 25) or Mido 50 mg (n = 21)
[11] = human, plasma, oral, plasma, Ketoconazole + midostaurin arm, n = 18
[12] = human, plasma, oral, plasma, Placebo + midostaurin arm, ketoconazole study, n = 18
[13] = midostaurin 50 mg single dose, ketoconazole 400 mg daily
[14] = ketoconazole study, both arms pooled (N = 47)
[15] = ketoconazole study: Mido 50 mg (n = 20) or Mido 50 mg + Keto 400 mg (n = 27)
[16] = phase II, 100 mg twice daily, 26 patients with ASM
[17] = stage 1 analysis, global phase II study, ASM or mast cell leukemia
[18] = plasma, plasma, Placebo + midostaurin arm, rifampicin study, n = 20
[19] = plasma, plasma, Rifampicin + midostaurin arm, n = 20

CO[C@@H]1[C@H](N(C)C(=O)c2ccccc2)C[C@H]2O[C@]1(C)n1c3ccccc3c3c4c(c5c6ccccc6n2c5c31)C(=O)NC4 [Midostaurin]
diarrhea ([1]; rifampicin study, by arm): 33% | nausea ([1]; rifampicin study, by arm): 38% | participants who experienced an AE ([1]; rifampicin study, by arm): 62% | Adverse event: Abdominal distension [1, 10]: 0 n (%) | Adverse event: Any preferred term [1, 10]: 13 (61.9) n (%) | Adverse event: Back pain [1, 10]: 1 (4.8) n (%) | Adverse event: Chromaturia [1, 10]: 0 n (%) | Adverse event: Cough [1, 10]: 0 n (%) | Adverse event: Diarrhea [1, 10]: 7 (33.3) n (%) | Adverse event: Discolored feces [1, 10]: 0 n (%) | Adverse event: Dizziness [1, 10]: 0 n (%) | Adverse event: Dry skin [1, 10]: 0 n (%) | Adverse event: Dyspepsia [1, 10]: 0 n (%) | Adverse event: Feeling cold [1, 10]: 0 n (%) | Adverse event: Feeling hot [1, 10]: 0 n (%) | Adverse event: Flatulence [1, 10]: 1 (4.8) n (%) | Adverse event: Headache [1, 10]: 1 (4.8) n (%) | Adverse event: Hot flush [1, 10]: 0 n (%) | Adverse event: Nasopharyngitis [1, 10]: 2 (9.5) n (%) | Adverse event: Nausea [1, 10]: 8 (38.1) n (%) | Adverse event: Palpitations [1, 10]: 0 n (%) | Adverse event: Pharyngolaryngeal pain [1, 10]: 0 n (%) | Adverse event: Restlessness [1, 10]: 0 n (%) | Adverse event: Rhinitis [1, 10]: 0 n (%) | Adverse event: Sleep disorder [1, 10]: 0 n (%) | Adverse event: Somnolence [1, 10]: 0 n (%) | Adverse event: Vomiting [1, 10]: 1 (4.8) n (%) | fraction of midostaurin metabolized by CYP3A4 (FmCYP3A4) ([2]; 1 − AUCinf (without ketoconazole)/AUCinf (with ketoconazole)): 91% | DDI classification (PhRMA proposal for drugs biotransformed via CYP3A4) ([2]; co-administration with ketoconazole): strong | elimination t 1/2 in the presence of ketoconazole ([2]; compared with placebo): prolonged | AUC(0-inf) ([2]; human, plasma, oral, plasma, Ketoconazole + midostaurin arm (midostaurin 50 mg once, ketoconazole 400 mg daily), n = 18): 206000 ng·h/mL | AUC(0-inf) ([2]; human, plasma, oral, plasma, Placebo + midostaurin arm (midostaurin 50 mg once), ketoconazole study, n = 18): 19800 ng·h/mL | Cmax [2, 11]: 2890 ng/mL | Cmax [2, 12]: 1590 ng/mL | half-life [2, 11]: 90.6 h | half-life [2, 12]: 23.3 h | Tmax ([2]; human, plasma, oral, t max, median, plasma, Ketoconazole + midostaurin arm, n = 18): 1.5 h | t max, Hodges–Lehmann estimate of median difference (90 % distribution-free CI) ([2]; ketoconazole + midostaurin vs placebo + midostaurin): 0.5 (0, 0.5) h | increase in AUC (exposure) with ketoconazole compared with placebo [2, 13]: more than tenfold; also recorded: tenfold | increase in C max with ketoconazole compared with placebo [2, 13]: ≈ 1.8 fold and 1.8 fold | bound to AAG [3]: 88–98% | tolerability ([4]; all 3 studies, single agent or in combination, healthy volunteers): generally well tolerated | intensity of AEs ([4]; ketoconazole study, both arms pooled): mild | participants who discontinued the study because of AEs [4, 14]: 15% | serious AEs [4, 14]: no serious AEs | Adverse event: Abdominal distension [4, 15]: 0 n (%) | Adverse event: Any preferred term [4, 15]: 13 (65.0) n (%) | Adverse event: Back pain [4, 15]: 0 n (%) | Adverse event: Chromaturia [4, 15]: 0 n (%) | Adverse event: Cough [4, 15]: 0 n (%) | Adverse event: Diarrhea [4, 15]: 4 (20.0) n (%) | Adverse event: Discolored feces [4, 15]: 0 n (%) | Adverse event: Dizziness [4, 15]: 5 (25.0) n (%) | Adverse event: Dry skin [4, 15]: 0 n (%) | Adverse event: Dyspepsia [4, 15]: 0 n (%) | Adverse event: Feeling cold [4, 15]: 2 (10.0) n (%) | Adverse event: Feeling hot [4, 15]: 0 n (%) | Adverse event: Flatulence [4, 15]: 0 n (%) | Adverse event: Headache [4, 15]: 2 (10.0) n (%) | Adverse event: Hot flush [4, 15]: 0 n (%) | Adverse event: Nasopharyngitis [4, 15]: 0 n (%) | Adverse event: Nausea [4, 15]: 7 (35.0) n (%) | Adverse event: Palpitations [4, 15]: 0 n (%) | Adverse event: Pharyngolaryngeal pain [4, 15]: 0 n (%) | Adverse event: Restlessness [4, 15]: 0 n (%) | Adverse event: Rhinitis [4, 15]: 1 (5.0) n (%) | Adverse event: Sleep disorder [4, 15]: 0 n (%) | Adverse event: Somnolence [4, 15]: 0 n (%) | Adverse event: Vomiting [4, 15]: 1 (5.0) n (%) | free midostaurin concentrations [5]: 0.02 to 1 µM | major pathway for elimination [5]: Fecal excretion | period of time-linear accumulation ([5]; daily oral dosing): 3 to 6 days | time to new plateau of plasma concentrations ([5]; daily oral dosing): 2–3 weeks | mean apparent volume of distribution ([5]; healthy volunteers): 111 L | time of peak plasma concentrations postdose ([5]; human, in vivo, po): 1 to 3 h | dose proportionality of C max and AUC ([5]; single-dose administration): increased proportionally with dose following single-dose administration of midostaurin between 25- and 50-mg doses but under proportionally between 50- and 100-mg doses | response rate according to Valent criteria ([6]; phase II investigator-initiated study, 100 mg twice daily, 26 patients with ASM): 69% | good partial responses (number of patients) [6, 16]: 5 | incomplete remissions (number of patients) [6, 16]: 6 | major responses (number of patients) [6, 16]: 10 | minor partial responses (number of patients) [6, 16]: 3 | pure clinical responses (number of patients) [6, 16]: 4 | major response [6, 17]: 53% | overall response rate [6, 17]: 60% | increase in geometric mean of apparent clearance with rifampicin ([7]; compared with midostaurin administered alone): 16.9 fold | AUC(0-inf) ([7]; plasma, plasma, Placebo + midostaurin arm (midostaurin 50 mg once), rifampicin study, n = 20): 22800 ng·h/mL | AUC(0-inf) ([7]; plasma, plasma, Rifampicin + midostaurin arm (midostaurin 50 mg once, rifampicin 600 mg daily), n = 20): 1350 ng·h/mL | AUC(0-t) [7, 18]: 22000 ng·h/mL | AUC(0-t) [7, 19]: 1230 ng·h/mL | Cmax [7, 18]: 1620 ng/mL | Cmax [7, 19]: 440 ng/mL | half-life [7, 18]: 23 h | half-life [7, 19]: 5.14 h | decrease in exposure by induction of CYP3A4 by rifampicin ([7]; midostaurin 50 mg single dose, rifampicin 600 mg daily): more than tenfold | t max, median ([7]; plasma, Placebo + midostaurin arm, rifampicin study, n = 20): 1.02 h | inhibition or induction of CYP3A4 in vivo ([8]; humans, single dose 100 mg and 50 mg twice daily): neither an inhibitor nor inducer; also recorded: neither a CYP3A4 inhibitor nor a CYP3A4 inducer | effect on concentrations of midazolam and 1′-hydroxymidazolam ([8]; single or multiple doses of midostaurin): did not appreciably affect | change in level of endogenous CYP3A4 biomarker 4-β-hydroxycholesterol in plasma [9]: significant increase
